One block for each compound: values may come before it.
Key:
[1] = system: acute heart failure patients; details: cited from earlier work
[2] = In vitro liver microsomal stability assay; format: in vitro ADME; details: human liver microsomes 0.5 mg/mL, 1 μM compound, 37° C., NADPH-generating system, compared with non isotopically enriched rolofylline, '+' marks one bin of −25%-0%, 0%-50%, 50%-150%
Experimental: Liver microsomal stability assays were conducted at 0.5 mg per mL liver microsome protein with an NADPH-generating system in 2% NaHCO3 (2.2 mM NADPH, 25.6 mM glucose 6-phosphate, 6 units per mL glucose 6-phosphate dehydrogenase and 3.3 mM MgCl2). Test compounds were prepared as solutions in 20% acetonitrile-water and added to the assay mixture (final assay concentration 1 μM) and incubated at 37° C. Final concentration of acetonitrile in the assay should be <1%. […] were taken out at times 0, 7.5, 15, 22.5, 30 minutes, and diluted with ice cold acetonitrile (200 μL) to stop the reactions. Samples were centrifuged at 12,000 RPM for 10 min to precipitate proteins. Supernatants were transferred to micro centrifuge tubes and stored for LC/MS/MS analysis of the degradation half-life of the test compounds. […] The degradation half-lives of Examples 1 through 4 (isotopically enriched compounds) as compared with non isotopically enriched rolofylline are shown in Table 1.

[3] = rolofylline 30 mg daily for 3 days

Structure (SMILES): CCCn1c(=O)c2[nH]c(C34CC5CC(CC3C5)C4)nc2n(CCC)c1=O [Rolofylline, 8-(hexahydro-2,5-methano-pentalen-3a-yl)-1,3-dipropyl-3,7-dihydro-purine-2,6-dione]
urine output at 6 hours ([1]; acute heart failure patients, 6 hours): increased urine output at 6 hours
overall urine output over 24 hours ([1]; acute heart failure patients, 24 hours): did not increase overall urine output over 24 hours
patients with persistent renal impairment ([1]; rolofylline 30 mg daily for 3 days, acute heart failure patients): 8%
dyspnea improvement versus placebo [1, 3]: superior to placebo
instances of death, heart failure readmission, worsening heart failure or persistent renal impairment versus placebo [1, 3]: less instances

Structure (SMILES): [2H]C([2H])(CC)n1c(=O)c2[nH]c(C34CC5CC(CC3C5)C4)nc2n(CCC)c1=O [Example 3, 8-(Noradamantyl)-1-(1,1-d2-propyl)-3-propyl-3,7-dihydro-purine-2,6-dione]
% increase of HLM degradation half-life [2]: + (−25%-0%)

Structure (SMILES): [2H]C([2H])([2H])C([2H])([2H])C([2H])([2H])n1c(=O)c2[nH]c(C34CC5CC(CC3C5)C4)nc2n(C([2H])([2H])C([2H])([2H])C([2H])([2H])[2H])c1=O [Example 2, 8-(Noradamantyl)-1-(d7-propyl)-3-(d7-propyl)-3,7-dihydro-purine-2,6-dione]
% increase of HLM degradation half-life [2]: + (−25%-0%)

Continued, values first:

% increase of HLM degradation half-life [2]: + (−25%-0%)
Structure (SMILES): [2H]C([2H])([2H])C([2H])([2H])C([2H])([2H])n1c(=O)c2[nH]c(C34CC5CC(CC3C5)C4)nc2n(CCC)c1=O [Example 4, 8-(Noradamantyl)-1-(d7-propyl)-3-propyl-3,7-dihydro-purine-2,6-dione]

% increase of HLM degradation half-life [2]: + (−25%-0%)
Structure (SMILES): [2H]C([2H])([2H])C([2H])([2H])C([2H])([2H])n1c(=O)n(CCC)c(=O)c2[nH]c(C34CC5CC(CC3C5)C4)nc21 [Example 1, 8-(Noradamantyl)-1-propyl-3-(d7-propyl)-3,7-dihydro-purine-2,6-dione]
